Data taken from the NIST ThermoML archive (doi:10.1016/j.fluid.2008.06.022).

Details: Liquid

CCCOCC(C)O (centres undefined) [1-propoxy-2-propanol]
Details	vapor or sublimation pressure [kPa]
298.15 K	0.341
303.15 K	0.481
308.15 K	0.672
313.15 K	0.937
318.15 K	1.271
323.15 K	1.707
328.15 K	2.256
333.15 K	2.967
338.15 K	3.839
343.15 K	4.951
348.15 K	6.29
353.15 K	7.963
358.15 K	9.95
363.15 K	12.38
368.15 K	15.27
373.15 K	18.7
378.15 K	22.65
383.15 K	27.42
388.15 K	32.8
393.15 K	39.18
398.15 K	46.38
403.15 K	54.75
408.15 K	64.1
413.15 K	74.98
